# Test results reported in patent US20250326799A1, “AGENTS INDUCING VASCULARISATION” (Coegin Pharma AB, priority 2022, published 2025).
# “Also recorded” adds a separate entry of the source.
# Columns and labels:
# [1] = test system: human coronary artery smooth muscle cells (HCASMCs); experiment: BrdU cell proliferation in HCASMCs; type: cell-based; conditions: for vascular smooth muscle cell proliferation (DNA synthesis, uptake of BrdU, O.D. 450 nm): 10 nM, 100 nM, 1000 nM, compared to control; for smooth muscle cell proliferation (BrdU incorporation): addition of the peptide
# Experimental: Cell proliferation was evaluated with BrdU Cell Proliferation Elisa Kit (Abcam, UK). After incubation at 37° C. overnight with respective complete medium, for NRP-1 knock down-relative experiments, HUVECs and HCASMCs on 96-well plates were transfected with siRNA/siRNA-NC directly; for test polypeptide stimulations, HUVECs and HCASMCs were starved with low-serum condition for additional 24 hours and 48 hours before treatments. At 32 hours after transfection or polypeptide stimulations, cells were cultured with BrdU reagent for another 16 hours to determine cell proliferation. Subsequent steps were performed as manufacturer's instructions and data were read by Wallac 1420 Victor 2 (Perkin Elmer, USA).
# The effect of FOL-026 peptide treatment on smooth muscle cell proliferation (FIG. 25a) and apoptosis (FIG. 25c) induced with low-oxygen condition was evaluated with the uptake of BrdU (n=10 per group) and active caspase-3/-7 (n=6-8 per group) separately. H2O2 measurement (FIG. 25b) of smooth muscle cells pre-incubated with FOL-26 peptides after 50 ug/ml oxidized Low-density Lipoprotein (oxLDL) stimulation for 2 hours (n=6-7 per group). Representative images of scratch wound assay in vitro are shown (FIG. 26a) and the ability of wound healing (FIG. 26b) in human coronary smooth muscle cells (HCASMCs) treated with FOL-026 peptides was measured by image J software (n=10 per group). Scale bar=150 um. Data are presented as means±SEM and acquired from 3 to 4 independent replicate tests. *P<0.05, **P<0.01, ***P<0.001, ****P<0.0001 by one-way ANOVA and Dunnett's post-hoc test.
# The effect of FOL-005 peptide on smooth muscle cell proliferation (FIG. 30a) was determined with BrdU incorporation in peptide-treated human coronary smooth muscle cells (HCASMCs). Scratch wound assay (FIG. 30b) of HCASMCs incubated with FOL-005 peptides for 5 hours was measured by image J software (n=10-12 per group) and representative pictures of smooth muscle cell migration into an in vitro scratch injury were shown (FIG. 30c). Scale bar=150 um.
# [2] = test system: Human umbilical cord endothelial cells (HUVECs); experiment: Endothelial tube formation on Geltrex matrix; type: cell-based; conditions: for endothelial tube formation / endothelial tube formation after NRP-1 knock-down: HUVECs; for endothelial tube formation: 10 nM, 100 nM, 1000 nM, compared to control; for tube formation (total length, master segments, branching, segments length): HUVECs treated with peptide; for endothelial tube formation after NRP-1 knock-down: siRNA-NC or siNRP-1 group, then rising dose of peptide
# Experimental: Cells were transfected for 48 hours or performed with 0.5% supplement starvation for 24 hours on 6-well plates as described above and dissociated by Accutase (Gibco, USA) to obtain cell suspension. Geltrex reduced growth factor basement membrane matrix ((Invitrogen, CA, USA) was thawed at 4° C. overnight and added into a 96-well plate (50 µl/well) next. The coated 96-well plate was placed in the incubator more than 30 mins for further use and the cell suspension was seeded into it at a density of 1.5 x 10^4/well. For NRP-1 silencing experiments, cells were cultured with complete medium. For polypeptide treatment experiments, cells were stimulated with complete medium plus the different concentration of polypeptide. For NRP-1 rescued experiments, cells transfected with siRNA were cultured with complete medium and NRP-1 stimulations. After a 24-hour incubation, images were recorded by an inverted microscope (Nikon, Eclipse TE2000-U, Japan) and the sum length of master segments of vessels in each image were quantified using Angiogenesis Analyzer plug-in ImageJ software program (pixel/unit). Data were analyzed with photographs from 8-14 wells per condition.
# Human umbilical cord endothelial cells were first treated with a scramble non-coding siRNA (NC) or siRNA for NRP-1, subsequently treated with FOL26 in concentrations of 10 nM, 100 nM, and 1000 nM, and endothelial tube formation and the total master segemnts were measured using ImageJ. gene expression of PECAM-1 (CD31) analyzed.
# Quantified measurement of total length (FIG. 20b), total master segments length (FIG. 20c), total branching length (FIG. 20d) and total segments length (FIG. 20e) were performed to evaluate angiogenesis in vitro (n=7 per group for FIG. 29 b-e). The quantification of vessel density was assessed with CD31+ positive area (FIG. 21a, n=13 per group). Western blot analysis of phosphorylated AKT (pAKT-T308), AKT, phosphorylated ERK1/2 (p-ERK1/2) and ERK1/2 in endothelial cells stimulated with FOL-26 peptides for 48 hours (FIG. 21b). Quantification of phosphorylation intensities normalized to respective total expressions (FIG. 21c-d, n=3 per group).
# Tube formation with rising dose of FOL-026 peptide treatment in siRNA-NC or siNRP-1 group (FIG. 24a) and total length (FIG. 24b), total master segments length (FIG. 24c), total branching length (FIG. 24d) and total segments length (FIG. 24e) was calculated using Angiogenesis Analyzer plug-in ImageJ (n=7-12 per group). Scale bar=150 um. Data are presented as means±SEM and acquired from 3 to 4 independent replicate tests. *P<0.05, **P<0.01, ***P<0.001, ****P<0.0001 by two-way ANOVA followed with Sidak's and Dunnett's multiple comparisons test.
# Quantified measurement of total master segments length FIG. 31b was used to evaluate angiogenesis in vitro (n=7 per group). Scale bar=150 um.
Sequence,"vascular smooth muscle cell proliferation (DNA synthesis, uptake of BrdU, O.D. 450 nm) [1]",endothelial tube formation [2],"vascular smooth muscle cell proliferation (DNA synthesis, uptake of BrdU, O.D. 450 nm) ([1]; listed as FOL26)",smooth muscle cell proliferation (BrdU incorporation) [1],"tube formation (total length, master segments, branching, segments length) [2]",endothelial tube formation after NRP-1 knock-down [2],endothelial tube formation after NRP-1 knock-down ([2]; listed as FOL26),endothelial tube formation ([2]; listed as FOL26)
AEIDSIELSYGIK [FOL56],significant increase in proliferation; also recorded: increases proliferation at all concentrations,significantly increased tube formation; also recorded: increased tube formation at all concentrations,,,,,,
VDTYDGGISVVYGLR [FOL-026],,,significant increase in proliferation; also recorded: increase in O.D. (450 nm),induces smooth muscle cell proliferation,positive effect,induce tube formation,increased tube formation compared to control in a NRP-1 dependent way,significantly increased tube formation; also recorded: increased tube formation compared to control
VDTYDGDISVVYGLR [FOL-005],,,,increases,increases the tube formation,,,
